The values that follow come from patent US20080103191A1, “ENTACAPONE-DERIVATIVES” (priority 2006, published 2008).

A short description of data set [1]: Chemical hydrolysis stability at pH 1 and pH 7.4 (HPLC). The class given is physicochemical. Conditions: 37° C., over 12 h. The method in brief:
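Compound dissolved in 0.1 N HCl or PBS and held at 37° C over 12 h, sampling at set intervals for remaining prodrug by reversed-phase C8 HPLC with 220 nm detection. Peak areas expressed relative to first injection, ln-plotted against time; t1/2 [h] derived assuming first-order kinetics.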

Data set [2] in a line: Stability of Labrasol formulations in simulated gastric fluid (precipitate formation). The data set is classed as physicochemical. As to conditions: for Precipitate formation, directly after addition: 3 mg in 1.5 mL Labrasol added to 10 mL SGF, visual inspection; for Precipitate formation, 5 min / Precipitate formation, 15 min / Precipitate formation, 30 min / Precipitate formation, 60 min / Precipitate formation, 24 h: Labrasol solution in SGF. Here is the method:
(§1) Simulated gastric fluid (SGF) is prepared as follows. 200 mg NaCl are dissolved in 70 mL H2O. 0.7 mL concentrated HCl is added. Subsequently, 320 mg of pepsin powder is added, and the mixture is filled up to 100 mL with H2O. A clear solution is obtained (pH 1-2).
1.5 mL of Labrasol® is added to 3 mg of the respective compound of formula I, and the obtained solutions are shaken. Subsequently, each of the solutions is added to 10 mL SGF by drop-wise addition. Precipitate formation is determined by visual inspection of each solution immediately after the addition of the solution comprising the respective compound of formula I in Labrasol® to SGF and after 5, 15, 30, and 60 min, and 24 h.

Data set [3] in a line: Stability in TPGS/PG over 22 h. As to conditions: for Amount of compound: TPGS/PG, ambient temperature; for Amount of entacapone: entacapone formed in TPGS/PG. The class given is physicochemical. The protocol: The stability of selected compounds of formula I in TPGS/PG over 22 h is tested by the following procedure: […]
37.5 mg of compounds 15, 35 and 57, respectively […] of compound 63, are in each case added to 25 mL of TPGS/PG (25% by weight of TPGS, 75% by weight of PG) (concentration of compounds 15, 35, 57:1.5 mg/mL; concentration of compound 63:1.4 mg/mL). Each formulation obtained is stirred for 22 h at ambient temperature. The amount of the respective compound of formula I and the amount of entacapone are determined after 5 h, 8 h, 11 h, and 22 h by HPLC assay. Reversed phase gradient HPLC method, column YMC Pro C8, 50 mm×4.0 mm, 3 μm, Eluent A: Water:trifluoroacetic acid (100:0.5 (v/v)), Eluent B: Acetonitrile:trifluoroacetic acid (100:0.5 (v/v)). Column temperature 30° C., Flow rate 3.0 mL/min, Detection wavelength: 220 nm

Data set [4] is described as follows: Log D (pH 7.4) by isocratic HPLC. The class given is physicochemical. As to conditions: YMC Pro C18 column, phosphate buffer pH 7.4/acetonitrile 45/55. The method in brief: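 Retention measured by isocratic HPLC on a C18 column (150 mm×4.0 mm, 3 μm) eluted with phosphate buffer pH 7.4/acetonitrile 45/55 (v/v) at 1.2 ml/min, run time 15-60 min. Detection at 220 nm.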

A further data set in a line: Plasma stability ex vivo. The class given is in vitro ADME. Conditions: human plasma, 37° C., read-out: t1/2 plasma. The protocol:
Plasma stability is determined in human and rat plasma ex vivo. For the determination of the plasma stability of the compounds of formula I, the test compounds were incubated with human plasma (c=5 μg/mL) at 37° C. for certain time intervals up to 60, resp. 120 min (depending on the compound). Afterwards the incubations were stopped by equivalent addition of acetonitrile for protein precipitation, and the samples were mixed and centrifuged. The supernatants were adequately diluted and analyzed by HPLC with UV detection at 305 nm.
The degradation of the compounds of formula I as well as the formation of the active drug entacapone were monitored, and the half-life times of the compounds of formula I were calculated from the obtained peak areas.

The nature of data set [5]: Stability of TPGS/PG formulations in simulated gastric fluid (precipitate formation). The class given is physicochemical. Conditions: for Precipitate formation, directly after addition: 1.0 mL TPGS/PG solution added to 10 mL SGF, visual inspection; for Precipitate formation, 24 h: TPGS/PG solution in SGF. Here is the method:
as §1
2 mL TPGS/PG is added to 5-6 mg of the respective compound of formula I, and the obtained solutions are shaken for 5 h. […] 1.0 mL of the centrifuged solution is added drop-wise to 10 mL SGF. Precipitate formation is determined by visual inspection of each solution immediately after addition of the solution comprising the respective compound of formula I in TPGS/PG to SGF and after 24 hours.

Setting [6] is: pH 1, 0.1 N HCl, read-out: t1/2 at pH 1 (converted).
Where [7] appears, read: pH 7.4, PBS buffer, read-out: t1/2 at pH 7.4 (converted).
[8] abbreviates: 5 h, start 1.5 mg/mL (compound 63: 1.4 mg/mL).

Read-outs that look alike come from different tables or passages of the source.

For orientation: chromatographic logD means a lipophilicity value derived from retention on a column. The low end stands for lower lipophilicity, the high end for higher lipophilicity. With `CCCCC(CC)COC(=O)Oc1cc(/C=C(\C#N)C(=O)N(CC)CC)cc([N+](=O)[O-])c1O` (centres unmarked) [Compound 15, Carbonic acid 5-((E)-2-cyano-2-diethylcarbamoyl-vinyl)-2-hydroxy-3-nitro-phenyl ester 2-ethyl-hexyl ester], the results for the half-life in data set [1] (setting [6]) and in data set [1] (setting [7]) were 15.6 h and 7.2 h, respectively. For the same compound, the “Precipitate formation, directly after addition” value (“Precipitate formation, directly” below) is “clear after shaking” in data set [2] (after shaking); “First: white precipitate;” in data set [2] (initially, before shaking); “clear” in data set [5]. Besides, in data set [2], the “Precipitate formation, 5 min” value is “clear”. Further, the “Precipitate formation, 15 min” value in data set [2] is given as “clear”. Moreover, the “Precipitate formation, 30 min” value in data set [2] is on record as “clear”. For the same compound, the “Precipitate formation, 60 min” value in data set [2] is “clear”. Also, the “Precipitate formation, 24 h” value in data set [2] and in data set [5] was “clear” each time. Besides, the Amount of compound in data set [3] (setting [8]) is on record as 1.23 mg/mL; in data set [3] (8 h) it was 1.23 mg/mL; in data set [3] (11 h), 1.16 mg/mL; in data set [3] (22 h), 1.05 mg/mL. Also, the Amount of entacapone is given as 0.05 mg/mL in data set [3] (5 h), 0.06 mg/mL in data set [3] (8 h), 0.10 mg/mL in data set [3] (11 h) and 0.17 mg/mL in data set [3] (22 h). In data set [4], this compound gave a chromatographic logD of 2.9. For the same compound, the half-life at 5 μg/mL in “Plasma stability ex vivo” came to 1.48 h.

For the compound `CCCCCCCCOC(=O)Oc1cc(/C=C(\C#N)C(=O)N(CC)CC)cc([N+](=O)[O-])c1O` [Compound 35, Carbonic acid 5-((E)-2-cyano-2-diethylcarbamoyl-vinyl)-2-hydroxy-3-nitro-phenyl ester octyl ester], the results for the half-life in data set [1] (setting [6]) and in data set [1] (setting [7]) were 14.4 h and 6.8 h, respectively. Also, the “Precipitate formation, directly” value in data set [2] (after shaking) was “clear after shaking”; in data set [2] (initially, before shaking), “First: white precipitate;”; in data set [5], “clear”. For the same compound, the “Precipitate formation, 5 min” value in data set [2] was “clear”. The “Precipitate formation, 15 min” value in data set [2] is on record as “clear”. In data set [2], the “Precipitate formation, 30 min” value was “clear”. Further, the “Precipitate formation, 60 min” value in data set [2] was “clear”. In addition, the “Precipitate formation, 24 h” value in data set [2] and in data set [5] was “clear” each time. For the same compound, the Amount of compound in data set [3] (setting [8]) stood at 1.21 mg/mL; in data set [3] (8 h) it was 1.36 mg/mL; in data set [3] (11 h), 1.40 mg/mL; in data set [3] (22 h), 1.23 mg/mL. The Amount of entacapone was found to be 0.03 mg/mL in data set [3] (5 h), 0.05 mg/mL in data set [3] (8 h), 0.07 mg/mL in data set [3] (11 h) and 0.08 mg/mL in data set [3] (22 h). The chromatographic logD in data set [4] was 3.1. The half-life at 5 μg/mL in the data set “Plasma stability ex vivo” is 2 h.

With `CCN(CC)C(=O)/C(C#N)=C/c1cc(OC(=O)OCC2CCCCC2)c(O)c([N+](=O)[O-])c1` [Compound 57, Carbonic acid 5-((E)-2-cyano-2-diethylcarbamoyl-vinyl)-2-hydroxy-3-nitro-phenyl ester cyclohexylmethyl ester], the figures for the half-life in data set [1] (setting [6]) and in data set [1] (setting [7]) were 16.5 h and 7.7 h, respectively. The “Precipitate formation, directly” value in data set [2] (after shaking) is “clear after shaking”; in data set [2] (initially, before shaking), “First: white precipitate;”; in data set [5], “clear”. Also, the “Precipitate formation, 5 min” value in data set [2] is recorded as “clear”. Also, the “Precipitate formation, 15 min” value in data set [2] is “clear”. Also, the “Precipitate formation, 30 min” value in data set [2] is “clear”. Also, in data set [2], the “Precipitate formation, 60 min” value is recorded as “clear”. Moreover, the “Precipitate formation, 24 h” value in data set [2] and in data set [5] was “clear” each time. In addition, the Amount of compound in data set [3] (setting [8]) is recorded as 1.37 mg/mL; in data set [3] (8 h), 1.39 mg/mL; in data set [3] (11 h), 1.35 mg/mL; in data set [3] (22 h), 1.31 mg/mL. For the same compound, the Amount of entacapone came out at 0.03 mg/mL in data set [3] (5 h), 0.04 mg/mL in data set [3] (8 h), 0.05 mg/mL in data set [3] (11 h) and 0.08 mg/mL in data set [3] (22 h). The compound also came in with a chromatographic logD in data set [4] of 2.3. Further, the half-life at 5 μg/mL in “Plasma stability ex vivo” stood at 0.302 h.

For the compound `CCCC(C)OC(=O)Oc1cc(/C=C(\C#N)C(=O)N(CC)CC)cc([N+](=O)[O-])c1O` (centres unmarked) [Compound 63, Carbonic acid 5-((E)-2-cyano-2-diethylcarbamoyl-vinyl)-2-hydroxy-3-nitro-phenyl ester 1-methyl-butyl ester], the half-life in data set [1] (setting [6]) and in data set [1] (setting [7]) was 28.9 h in each case. For the same compound, the “Precipitate formation, directly” value is “clear after shaking” in data set [2] (after shaking); “First: white precipitate;” in data set [2] (initially, before shaking); “clear” in data set [5]. Further, the “Precipitate formation, 5 min” value in data set [2] was “clear”. For the same compound, the “Precipitate formation, 15 min” value in data set [2] is “clear”. The “Precipitate formation, 30 min” value in data set [2] was “clear”. Further, the “Precipitate formation, 60 min” value in data set [2] is “clear”. Further, the “Precipitate formation, 24 h” value in data set [2] and in data set [5] was “clear” throughout. The Amount of compound in data set [3] (setting [8]) was determined as 1.25 mg/mL; in data set [3] (8 h), 1.12 mg/mL; in data set [3] (11 h) it was 1.16 mg/mL; in data set [3] (22 h), 1.08 mg/mL. Further, the Amount of entacapone in data set [3] (5 h) came to 0.02 mg/mL; in data set [3] (8 h), 0.02 mg/mL; in data set [3] (11 h), 0.02 mg/mL; in data set [3] (22 h), 0.03 mg/mL. For the same compound, the chromatographic logD in data set [4] stood at 1.4.
